Data as given in publication PMC7206119, “RIP1 inhibition blocks inflammatory diseases but not tumor growth or metastases” (Cell Death and Differentiation, 2019).

How the values were obtained:
Test in all cases: biochemical
Parameters in all cases: Thermo Fisher SelectScreen kinase panel: Z'-LYTE and Adapta activity, LanthaScreen binding
[1] = target: AKT2 (Homo sapiens, UniProt P31751)
How it was run: (§1)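 Single-concentration panel: 10 µM GNE684 in KINOMEscan scanMAX binding (468 kinases) and in a 221-kinase panel run as Z'-LYTE/Adapta activity or LanthaScreen binding assays.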

[2] = target: BMX (Homo sapiens, UniProt P51813)
How it was run: as §1

[3] = target: BRAF (Homo sapiens, UniProt P15056)
Sequence of BRAF (P15056 whole entry): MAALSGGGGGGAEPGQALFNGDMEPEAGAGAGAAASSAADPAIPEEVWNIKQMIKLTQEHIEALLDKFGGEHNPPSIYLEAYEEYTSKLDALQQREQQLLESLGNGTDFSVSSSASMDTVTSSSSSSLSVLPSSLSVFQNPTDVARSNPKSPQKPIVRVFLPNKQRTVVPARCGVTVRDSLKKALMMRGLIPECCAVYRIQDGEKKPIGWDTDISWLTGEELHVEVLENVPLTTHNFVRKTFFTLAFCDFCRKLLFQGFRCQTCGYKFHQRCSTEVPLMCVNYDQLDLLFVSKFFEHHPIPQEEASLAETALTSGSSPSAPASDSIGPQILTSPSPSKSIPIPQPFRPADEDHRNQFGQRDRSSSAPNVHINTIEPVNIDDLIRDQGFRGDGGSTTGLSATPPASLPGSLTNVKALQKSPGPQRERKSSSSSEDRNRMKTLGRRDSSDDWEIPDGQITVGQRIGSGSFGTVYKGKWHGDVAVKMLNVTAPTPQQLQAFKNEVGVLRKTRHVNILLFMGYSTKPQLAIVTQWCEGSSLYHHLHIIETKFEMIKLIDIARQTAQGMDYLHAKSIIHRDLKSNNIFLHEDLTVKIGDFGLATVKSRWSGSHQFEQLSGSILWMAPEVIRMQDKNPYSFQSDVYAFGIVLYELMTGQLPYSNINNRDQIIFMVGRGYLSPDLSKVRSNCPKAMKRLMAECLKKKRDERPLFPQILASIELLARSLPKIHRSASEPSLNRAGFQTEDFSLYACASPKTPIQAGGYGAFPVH
How it was run: as §1

[4] = target: T1, BRK (Homo sapiens, UniProt Q13882)
T1 construct: gene PTK6
How it was run: as §1

[5] = target: CDK8/cyclinC (Homo sapiens, UniProt P49336)
How it was run: as §1

[6] = target: T2, CK1_gamma1 (Homo sapiens, UniProt Q9HCP0)
T2 construct: gene CSNK1G1
How it was run: as §1

[7] = target: CLK3 (Homo sapiens, UniProt P49761)
Sequence of CLK3 (P49761 whole entry): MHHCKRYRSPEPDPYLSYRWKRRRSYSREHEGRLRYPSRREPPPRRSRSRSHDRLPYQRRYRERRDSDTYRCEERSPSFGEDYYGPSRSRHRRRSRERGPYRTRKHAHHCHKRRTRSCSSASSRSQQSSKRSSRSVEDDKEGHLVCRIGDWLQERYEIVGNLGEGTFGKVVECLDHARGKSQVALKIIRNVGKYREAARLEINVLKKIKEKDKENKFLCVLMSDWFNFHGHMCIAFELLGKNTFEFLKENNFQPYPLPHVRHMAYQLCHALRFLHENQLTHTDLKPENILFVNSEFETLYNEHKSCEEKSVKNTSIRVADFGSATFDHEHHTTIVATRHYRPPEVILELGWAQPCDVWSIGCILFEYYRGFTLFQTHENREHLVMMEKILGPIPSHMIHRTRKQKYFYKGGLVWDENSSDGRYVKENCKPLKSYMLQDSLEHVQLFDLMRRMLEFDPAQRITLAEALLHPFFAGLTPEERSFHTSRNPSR
How it was run: as §1

[8] = target: DMPK (Homo sapiens, UniProt Q09013)
How it was run: as §1

[9] = target: DYRK4 (Homo sapiens, UniProt Q9NR20)
Sequence of DYRK4 (Q9NR20 whole entry): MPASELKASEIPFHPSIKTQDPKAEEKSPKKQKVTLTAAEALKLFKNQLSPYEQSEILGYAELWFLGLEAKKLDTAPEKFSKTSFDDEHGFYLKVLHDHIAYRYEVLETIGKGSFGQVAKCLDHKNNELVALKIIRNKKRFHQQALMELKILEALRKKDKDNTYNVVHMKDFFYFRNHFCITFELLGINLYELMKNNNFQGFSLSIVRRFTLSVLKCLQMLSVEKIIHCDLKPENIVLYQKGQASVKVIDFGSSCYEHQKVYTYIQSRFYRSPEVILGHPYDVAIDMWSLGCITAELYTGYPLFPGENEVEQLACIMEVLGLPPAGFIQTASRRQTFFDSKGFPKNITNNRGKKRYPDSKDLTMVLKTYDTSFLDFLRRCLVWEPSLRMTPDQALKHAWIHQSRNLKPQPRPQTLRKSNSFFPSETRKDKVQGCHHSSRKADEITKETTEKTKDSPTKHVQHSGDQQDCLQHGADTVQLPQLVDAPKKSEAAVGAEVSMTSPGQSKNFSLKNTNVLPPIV
How it was run: as §1

[10] = target: EPHA1 (Homo sapiens, UniProt P21709)
How it was run: as §1

[11] = target: FES (Homo sapiens, UniProt P07332)
How it was run: as §1

[12] = target: GRK5 (Homo sapiens, UniProt P34947)
Sequence of GRK5 (P34947 whole entry): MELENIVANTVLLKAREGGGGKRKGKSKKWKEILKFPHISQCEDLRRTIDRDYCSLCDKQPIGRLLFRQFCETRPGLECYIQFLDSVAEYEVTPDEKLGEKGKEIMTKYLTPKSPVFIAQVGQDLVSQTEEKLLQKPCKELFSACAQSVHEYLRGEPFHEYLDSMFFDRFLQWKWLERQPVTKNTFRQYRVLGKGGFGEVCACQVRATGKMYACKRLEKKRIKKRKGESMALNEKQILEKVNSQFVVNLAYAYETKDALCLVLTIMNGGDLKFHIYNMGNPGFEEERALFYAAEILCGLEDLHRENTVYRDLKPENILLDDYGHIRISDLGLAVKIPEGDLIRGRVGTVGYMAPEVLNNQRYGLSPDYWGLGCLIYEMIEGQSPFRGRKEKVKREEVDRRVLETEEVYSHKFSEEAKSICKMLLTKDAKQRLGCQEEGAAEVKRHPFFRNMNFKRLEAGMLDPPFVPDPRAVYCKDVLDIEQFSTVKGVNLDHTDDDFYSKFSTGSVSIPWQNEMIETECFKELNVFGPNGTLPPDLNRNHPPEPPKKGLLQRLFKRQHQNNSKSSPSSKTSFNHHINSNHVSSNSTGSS
How it was run: as §1

[13] = target: T3, GSK3_alpha (Homo sapiens, UniProt P49840)
T3 construct: gene GSK3A
How it was run: as §1

[14] = target: IRAK1 (Homo sapiens, UniProt P51617)
How it was run: as §1

[15] = target: T4, MKK6 (Homo sapiens, UniProt P52564)
T4 construct: gene MAP2K6
How it was run: as §1

[16] = target: T5, MLK2 (Homo sapiens, UniProt Q02779)
T5 construct: gene MAP3K10
How it was run: as §1

[17] = target: T6, MYLK(smMLCK) (Homo sapiens, UniProt Q15746)
T6 construct: smooth muscle MLCK
T6 sequence (Q15746 whole entry): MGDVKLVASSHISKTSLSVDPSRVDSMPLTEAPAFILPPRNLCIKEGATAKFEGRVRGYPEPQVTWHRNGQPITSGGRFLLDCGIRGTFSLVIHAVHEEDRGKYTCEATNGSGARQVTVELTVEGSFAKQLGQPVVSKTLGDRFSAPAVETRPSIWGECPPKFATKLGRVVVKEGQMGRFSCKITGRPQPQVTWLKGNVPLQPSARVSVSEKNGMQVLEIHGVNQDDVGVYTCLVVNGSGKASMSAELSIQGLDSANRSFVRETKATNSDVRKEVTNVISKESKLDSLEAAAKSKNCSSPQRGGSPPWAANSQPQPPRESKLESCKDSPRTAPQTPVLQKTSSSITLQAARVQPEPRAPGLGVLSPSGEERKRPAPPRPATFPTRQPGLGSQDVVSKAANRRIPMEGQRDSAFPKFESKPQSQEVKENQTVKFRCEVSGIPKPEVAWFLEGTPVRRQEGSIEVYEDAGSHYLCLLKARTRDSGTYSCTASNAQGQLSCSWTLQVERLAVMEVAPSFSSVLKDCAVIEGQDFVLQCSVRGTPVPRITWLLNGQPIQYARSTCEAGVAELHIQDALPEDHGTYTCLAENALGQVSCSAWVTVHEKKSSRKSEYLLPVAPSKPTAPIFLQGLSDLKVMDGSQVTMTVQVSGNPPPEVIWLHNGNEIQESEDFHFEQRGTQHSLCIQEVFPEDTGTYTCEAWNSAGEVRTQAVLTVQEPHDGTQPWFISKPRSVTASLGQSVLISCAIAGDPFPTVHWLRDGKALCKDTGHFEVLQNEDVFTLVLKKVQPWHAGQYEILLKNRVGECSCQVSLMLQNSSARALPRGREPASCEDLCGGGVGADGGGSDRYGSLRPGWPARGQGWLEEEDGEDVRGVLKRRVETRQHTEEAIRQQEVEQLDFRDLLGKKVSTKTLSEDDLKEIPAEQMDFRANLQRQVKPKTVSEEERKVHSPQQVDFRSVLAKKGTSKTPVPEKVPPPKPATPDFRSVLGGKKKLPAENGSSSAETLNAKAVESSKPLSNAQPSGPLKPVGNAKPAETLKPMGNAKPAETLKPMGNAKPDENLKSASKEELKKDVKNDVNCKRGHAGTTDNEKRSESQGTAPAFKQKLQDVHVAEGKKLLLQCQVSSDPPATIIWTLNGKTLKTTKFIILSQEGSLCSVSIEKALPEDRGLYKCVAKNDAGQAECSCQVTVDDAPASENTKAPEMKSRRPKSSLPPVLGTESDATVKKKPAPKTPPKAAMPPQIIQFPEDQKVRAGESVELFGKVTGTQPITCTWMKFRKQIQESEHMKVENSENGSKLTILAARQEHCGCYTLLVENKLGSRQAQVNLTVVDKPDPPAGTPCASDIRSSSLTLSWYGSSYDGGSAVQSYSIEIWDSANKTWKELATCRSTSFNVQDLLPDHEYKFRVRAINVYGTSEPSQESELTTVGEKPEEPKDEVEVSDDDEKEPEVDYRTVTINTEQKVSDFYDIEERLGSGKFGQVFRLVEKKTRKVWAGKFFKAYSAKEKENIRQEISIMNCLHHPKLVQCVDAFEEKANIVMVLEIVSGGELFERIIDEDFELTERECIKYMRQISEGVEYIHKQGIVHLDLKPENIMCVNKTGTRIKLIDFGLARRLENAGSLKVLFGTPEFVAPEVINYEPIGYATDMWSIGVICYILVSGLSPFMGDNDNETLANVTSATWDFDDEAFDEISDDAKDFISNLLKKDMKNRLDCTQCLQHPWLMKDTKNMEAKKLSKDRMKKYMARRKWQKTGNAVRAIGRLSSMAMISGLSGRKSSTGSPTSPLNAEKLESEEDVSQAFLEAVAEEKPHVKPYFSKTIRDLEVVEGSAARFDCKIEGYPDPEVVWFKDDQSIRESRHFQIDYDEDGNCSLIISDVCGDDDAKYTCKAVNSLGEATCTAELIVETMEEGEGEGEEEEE
How it was run: as §1

[18] = target: T7, PKG1_alpha (Homo sapiens, UniProt Q13976)
T7 construct: gene PRKG1; isoform alpha
How it was run: as §1

[19] = target: PRKAA1 (Homo sapiens, UniProt Q13131)
How it was run: as §1

[20] = target: T8, PhK_gamma2 (Homo sapiens, UniProt P15735)
T8 construct: gene PHKG2
How it was run: as §1

[21] = target: SGK3 (Homo sapiens, UniProt Q96BR1)
Sequence of SGK3 (Q96BR1 whole entry): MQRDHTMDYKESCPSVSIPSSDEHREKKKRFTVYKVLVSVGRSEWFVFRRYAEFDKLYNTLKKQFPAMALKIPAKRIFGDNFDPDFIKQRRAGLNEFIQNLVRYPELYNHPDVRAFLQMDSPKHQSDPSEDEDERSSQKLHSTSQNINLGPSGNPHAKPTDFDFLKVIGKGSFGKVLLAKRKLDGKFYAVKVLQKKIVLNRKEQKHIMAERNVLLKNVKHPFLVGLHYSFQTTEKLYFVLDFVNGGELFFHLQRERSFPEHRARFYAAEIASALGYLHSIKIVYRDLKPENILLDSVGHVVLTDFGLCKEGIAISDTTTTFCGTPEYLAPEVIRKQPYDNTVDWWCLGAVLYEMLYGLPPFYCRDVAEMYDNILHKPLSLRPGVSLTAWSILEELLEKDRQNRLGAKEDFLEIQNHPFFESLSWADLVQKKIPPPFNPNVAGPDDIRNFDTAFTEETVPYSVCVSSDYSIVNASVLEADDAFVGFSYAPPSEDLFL
How it was run: as §1

[22] = target: TTK (Homo sapiens, UniProt P33981)
How it was run: as §1

[23] = target: T9, p38_alpha(direct) (Homo sapiens, UniProt Q16539)
T9 construct: gene MAPK14; direct
How it was run: as §1

## COc1cc2c(cn1)N(C)C(=O)[C@@H](NC(=O)c1nc3n(n1)[C@H](c1ccccc1)CC3)CC2 [GNE684, (S)-N-((S)-7-methoxy-1-methyl-2-oxo-2,3,4,5-tetrahydro-1H-pyrido[3,4-b]azepin-3-yl)-5-phenyl-6,7-dihydro-5H-pyrrolo[1,2-b][1,2,4]triazole-2-carboxamide]
[1]
  inhibition at 10 µM: 4.5%
[2]
  inhibition at 10 µM: 4.5%
[3]
  inhibition at 10 µM: 6.5%
[4]
  inhibition at 10 µM: -1%
[5]
  inhibition at 10 µM: 4.5%
[6]
  inhibition at 10 µM: 4%
[7]
  inhibition at 10 µM: 1.5%
[8]
  inhibition at 10 µM: -3%
[9]
  inhibition at 10 µM: 2%
[10]
  inhibition at 10 µM: 9.5%
[11]
  inhibition at 10 µM: 3%
[12]
  inhibition at 10 µM: 4.5%
[13]
  inhibition at 10 µM: 5%
[14]
  inhibition at 10 µM: -10.5%
[15]
  inhibition at 10 µM: -4.5%
[16]
  inhibition at 10 µM: 0%
[17]
  inhibition at 10 µM: -5%
[18]
  inhibition at 10 µM: 7%
[19]
  inhibition at 10 µM: -3%
[20]
  inhibition at 10 µM: 1%
[21]
  inhibition at 10 µM: 1.5%
[22]
  inhibition at 10 µM: -2.5%
[23]
  inhibition at 10 µM: 3.5%
